# Measured values as given in patent US7429482B2, “Screening tools for discovery of novel anabolic agents” (United States of America as represented by the Department …, priority 2005, dated 2008).
# Legend:
# human MAFbx promoter = assay: Human MAFbx promoter luciferase reporter assay in C2C12 / C2C12.AR cells; format: cell-based
# Text: The reporter genes pMAF3.1, pMAF2.4, pMAF948, pMAF400, and pMAF400-241 express firefly luciferase under the control of promoter regions of the human MAFbx gene and are described in Example 1. The rARC562G vector, encoding rat AR with a C562->G mutation in the first zinc binding module that disrupts binding of AR to DNA was described by Palvimo et al. (Mol Endocrinol 7: 1399-1407, 1993) pAR.4RKM (expressing AR with 4 R/K->M mutations in the nuclear localization sequence that is unable to enter the nucleus) and pAR.ABC (lacking the ligand binding domain) were described by Zhou et al. (J Biol Chem 269: 13115-13123, 1994). The pBabe.puro retroviral backbone described by Morgenstern and Land (Nucleic Acids Res 18: 3587-3596, 1990) was modified by introduction of a Not1 site. The ARE reporter gene expressing firefly luciferase under control of the MMTV hormone response element, and pSP72hAR-1, containing an insert of the full-length cDNA clone of the human AR, were provided by Dr. Diane Robins (University of Michigan). pRL-CMV expressing Renilla luciferase was from Promega (Madison, Wis.).
# C2C12 cells (American Type Culture Collection, Manassas, Va.) were maintained in Dulbeco's modified Eagle's Medium (DMEM) containing 10% fetal bovine serum (FBS) and penicillin (100 U/ml)/streptomycin (100 μg/ml) (growth medium). Cells were incubated at 37° C. in humidified air containing 10% CO2. 293T cells (American Type Culture Collection) were maintained in growth medium as above. Transfection was achieved using Lipofectamine-Plus (Invitrogen, Carlsbad, Calif.) using 200 ng total DNA per well.
# Cells were seeded into wells of 24-well plates (5×10^5 cells/well) then maintained overnight in DMEM with 10% CDS-FBS. Cells were co-transfected with the various reporter genes and pRL-CMV. Cells were incubated in the transfection mixture overnight, then covered with DMEM supplemented with 10% charcoal-dextran-stripped FBS (CDS-FBS) and either ethanol (EtOH) or hormones dissolved in EtOH. Cells were maintained for an additional 24 hours, at which time both firefly and renilla luciferase activity were determined using the Dual Luciferase Assay (Promega, Madison, Wis.) and a Berthold 96-well plate luminometer. Firefly luciferase activities were normalized relative to renilla luciferase. Ethanol concentrations were less than 0.1%.
# MAFbx mRNA = MAFbx mRNA levels in AR6 / C2C12.AR cells (qPCR); format: cell-based, mouse; conditions: dexamethasone with concurrent testosterone
# Experimental: (A) Rats were administered test agents as indicated in the figure for 7-days, at which time animals were sacrificed and MAFbx expression was determined in gastrocnemius muscles by qPCR. Data are mean values±SEM for at least 8 animals. * p<0.05 vs vehicle, t-test. (B) AR6 cells were seeded into 6-well plates and incubated overnight in growth medium. Medium was replaced with DMEM containing 2% horse serum followed by incubation for an additional 48 hours. Hormones or vehicle (EtOH) were added to the medium and cells were incubated overnight, at which time MAFbx mRNA levels were determined by qPCR and expressed as fold-induction versus levels in cells incubated with EtOH. Data are mean values±SEM for three determinations each performed in triplicate. * p<0.05 vs. EtOH (ANOVA). (C) Effect of testosterone on MAFbx mRNA half-life. C2C12.AR cells were incubated overnight in growth medium supplemented with testosterone or vehicle (EtOH). […] Levels of MAFbx mRNA are expressed as a percentage of those at time zero. […]
# RNA was quantified by absorbance at 260 nm. […] Relative changes in expression were determined using the 2^−ΔΔCt method. Taqman Assay on Demand probes (Applied Biosystems) were used for all assays except rat 18S RNA, which was quantified using the following Assay on Demand Probes: Forward: […] […]
compound,measurement,setting,value
C[C@]12CC[C@H]3[C@@H](CCC4=CC(=O)CC[C@@]43C)[C@@H]1CC[C@@H]2O [testosterone],repression of pMAF3.1 reporter activity,"human MAFbx promoter; C2C12.AR cells, 5 nM testosterone",about 40%
same,suppression of MAFbx reporter with 3′ deletion of 208 bases encoding the 5′ UTR,"human MAFbx promoter; C2C12.AR cells, 500 nM",abolished suppression
same,repression of pMAF3.1 reporter activity,"human MAFbx promoter; C2C12.AR cells, 500 nM testosterone",greater than 50%
same,repression of 5′ truncated MAFbx reporters,"human MAFbx promoter; C2C12.AR cells, 500 nM, three 5′ truncations including pMAF400",apparent
same,dexamethasone induced luciferase expression (pMAF3.1),"human MAFbx promoter; C2C12.AR cells, testosterone 5 nM",partially inhibited
same,dexamethasone induced luciferase expression (pMAF3.1),"human MAFbx promoter; C2C12.AR cells, testosterone 50 nM",full suppression
same,dexamethasone induced luciferase expression (pMAF3.1),"human MAFbx promoter; C2C12.AR cells, testosterone 500 nM",suppressed below that of untreated cells
same,suppression of reporter under control of 3.1 of the MAFbx upstream promoter,"human MAFbx promoter; C2C12 muscle cells, 500 nM",40%
same,expression of MAFbx reporter (general statement),human MAFbx promoter; cells transduced with the MAFbx reporter construct,decreased
same,effect on activity of pMAF3.1 reporter,"human MAFbx promoter; wild-type C2C12 cells, 5 to 500 nM",no effect
same,repression of pMAF3.1 reporter,"human MAFbx promoter; wild-type C2C12 co-transfected with AR defective in nuclear entry (4RKM), 500 nM",No repression
same,repression of pMAF3.1 reporter,"human MAFbx promoter; wild-type C2C12 co-transfected with AR lacking ligand binding domain (ABC), 500 nM",absent
same,repression of pMAF3.1 reporter,"human MAFbx promoter; wild-type C2C12 co-transfected with DNA binding domain mutant AR (C562G), 500 nM",repression was observed
same,pMAF3.1 reporter gene activity,"human MAFbx promoter; wild-type C2C12 co-transfected with wild-type AR, 500 nM",significantly depressed
same,MAFbx mRNA level versus cells exposed to ethanol only,MAFbx mRNA,not significantly different
